Test results published in patent US20240366589A1, “NHE3-BINDING COMPOUNDS AND METHODS FOR INHIBITING PHOSPHATE TRANSPORT” (Ardelyx, Inc., priority 2013, published 2024).

Legend:
[1] = test system: absorption of sodium from the intestinal lumen; test: Fecal form score (FFS) 16 h after oral dose in rats; assay type: in vivo, rat; conditions: oral gavage, 16 h post-dose, scale 1-5
Outline: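 Fecal form was scored at 16 h post-dose on a 1–5 wetness scale (normal pellet to liquid stream), with two independent observations averaged across six rats per group. Animals were 8-week-old Sprague-Dawley rats given test compound or water orally in the late afternoon and kept in metabolic cages.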

[2] = target: T1, Human NHE3 (Homo sapiens, UniProt P48764); test: Cell-based NHE3 activity under prompt conditions (OK cells, BCECF pH recovery), human NHE3; conditions: prompt conditions
T1 construct: expressed in transfected cells; host or cells: Opossum kidney (OK) cells (ATCC), electroporation
T1 sequence (P48764 26-834): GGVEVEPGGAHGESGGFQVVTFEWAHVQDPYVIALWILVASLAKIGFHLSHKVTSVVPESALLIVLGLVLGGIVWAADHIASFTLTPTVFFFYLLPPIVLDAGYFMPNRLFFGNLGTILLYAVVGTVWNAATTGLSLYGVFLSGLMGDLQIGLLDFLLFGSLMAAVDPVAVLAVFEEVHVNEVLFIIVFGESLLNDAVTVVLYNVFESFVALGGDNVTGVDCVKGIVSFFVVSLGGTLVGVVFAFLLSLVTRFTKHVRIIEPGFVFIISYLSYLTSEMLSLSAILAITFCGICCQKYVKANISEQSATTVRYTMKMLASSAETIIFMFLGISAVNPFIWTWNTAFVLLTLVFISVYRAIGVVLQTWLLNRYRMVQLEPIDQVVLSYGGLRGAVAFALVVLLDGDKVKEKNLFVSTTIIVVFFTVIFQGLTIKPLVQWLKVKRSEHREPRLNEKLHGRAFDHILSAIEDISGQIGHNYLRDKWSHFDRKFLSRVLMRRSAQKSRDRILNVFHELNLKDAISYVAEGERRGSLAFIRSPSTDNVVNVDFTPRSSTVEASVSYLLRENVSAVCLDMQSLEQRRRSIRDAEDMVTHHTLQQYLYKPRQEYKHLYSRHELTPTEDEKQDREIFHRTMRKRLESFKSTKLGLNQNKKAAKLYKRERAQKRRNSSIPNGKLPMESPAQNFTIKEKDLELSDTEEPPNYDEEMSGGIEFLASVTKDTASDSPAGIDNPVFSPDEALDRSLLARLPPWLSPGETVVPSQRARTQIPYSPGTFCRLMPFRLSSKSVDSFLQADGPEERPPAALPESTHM
Outline: (§1)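 Fluorometric NHE3 antiport assay in opossum kidney cells carrying rat or human NHE3, using BCECF pH recovery after NH4Cl-prepulse acid loading. pIC50 values derive from initial rates averaged across at least two replicates.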

[3] = target: T2, Rat NHE3 (Rattus norvegicus, UniProt P26433); test: Cell-based NHE3 activity under prompt conditions (OK cells, BCECF pH recovery), rat NHE3; conditions: prompt conditions
T2 construct: expressed in transfected cells; host or cells: Opossum kidney (OK) cells (ATCC), electroporation
T2 sequence (P26433 29-831): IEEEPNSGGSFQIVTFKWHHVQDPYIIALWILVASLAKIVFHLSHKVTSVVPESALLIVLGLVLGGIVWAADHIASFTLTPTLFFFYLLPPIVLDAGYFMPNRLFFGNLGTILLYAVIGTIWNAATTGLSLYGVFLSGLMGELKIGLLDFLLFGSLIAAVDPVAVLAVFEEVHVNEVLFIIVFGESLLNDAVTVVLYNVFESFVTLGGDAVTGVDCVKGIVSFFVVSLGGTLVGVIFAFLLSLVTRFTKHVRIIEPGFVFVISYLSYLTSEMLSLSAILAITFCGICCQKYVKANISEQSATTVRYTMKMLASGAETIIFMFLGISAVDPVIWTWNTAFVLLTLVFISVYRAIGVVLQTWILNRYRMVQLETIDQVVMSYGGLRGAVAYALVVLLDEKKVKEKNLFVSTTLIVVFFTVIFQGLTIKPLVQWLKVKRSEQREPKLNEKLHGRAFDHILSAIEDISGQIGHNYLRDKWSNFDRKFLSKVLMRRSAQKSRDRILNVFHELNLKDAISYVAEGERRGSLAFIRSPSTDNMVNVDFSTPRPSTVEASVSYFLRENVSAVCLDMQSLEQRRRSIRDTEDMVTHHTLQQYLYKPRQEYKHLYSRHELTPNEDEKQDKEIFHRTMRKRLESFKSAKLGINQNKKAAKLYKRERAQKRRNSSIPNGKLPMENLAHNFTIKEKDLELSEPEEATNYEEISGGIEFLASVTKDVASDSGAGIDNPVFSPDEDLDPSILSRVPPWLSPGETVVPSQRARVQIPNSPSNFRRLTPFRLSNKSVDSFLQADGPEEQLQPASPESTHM
Outline: as §1

[4] = test system: absorption of sodium from the intestinal lumen; test: Inhibition of intestinal sodium absorption: urinary sodium (uNa) 16 h after single oral dose in rats; assay type: in vivo, rat; conditions: oral gavage, 16 h post-dose
Outline: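 Urinary sodium mass over the 16 h after one oral gavage dose, measured by cation-exchange ion chromatography, reported as percent of water-vehicle group; ANOVA plus Dunnett's post hoc test. Groups of six 8-week-old Sprague-Dawley rats, housed individually in metabolic cages post-dose, fed and watered freely.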

[5] = test system: phosphorus and calcium levels in the urine of rats; test: Urinary excretion of phosphate and calcium in rats (16 h overnight urine); assay type: in vivo, rat; conditions: rats, oral gavage, 16 h post-dose

| Compound | Fecal Form Score average ([1]; dose 10 mg/kg) | Prompt Human NHE3 pIC50 [2] | Prompt Rat NHE3 pIC50 [3] | Urine Na % of control ([4]; dose 10 mg/kg) [%] | Urine P % of control ([5]; dose 10 mg/kg) [%] | Fecal Form Score average ([1]; dose 1 mg/kg) | Fecal Form Score average ([1]; dose 3 mg/kg) | Urine Na % of control ([4]; dose 1 mg/kg) [%] | Urine Na % of control ([4]; dose 3 mg/kg) [%] | Urine P % of control ([5]; dose 1 mg/kg) [%] | Urine P % of control ([5]; dose 3 mg/kg) [%] | IC50 ([3]; read-out: Prompt Rat NHE3 pIC50 (converted)) [nM] | Fecal Form Score average ([1]; dose 30 mg/kg) | Urine Na % of control ([4]; dose 30 mg/kg) [%] | Urine P % of control ([5]; dose 30 mg/kg) [%] |
| --- | --- | --- | --- | --- | --- | --- | --- | --- | --- | --- | --- | --- | --- | --- | --- |
| CN1Cc2c(Cl)cc(Cl)cc2C(c2cccc(S(=O)(=O)NCCOCCOCCOCCNC(=O)CN(CCN(CCN(CC(=O)NCCOCCOCCOCCNS(=O)(=O)c3cccc([C@@H]4CN(C)Cc5c(Cl)cc(Cl)cc54)c3)CC(=O)NCCOCCOCCOCCNS(=O)(=O)c3cccc([C@@H]4CN(C)Cc5c(Cl)cc(Cl)cc54)c3)CC(=O)NCCOCCOCCOCCNS(=O)(=O)c3cccc([C@@H]4CN(C)Cc5c(Cl)cc(Cl)cc54)c3)CC(=O)NCCOCCOCCOCCNS(=O)(=O)c3cccc([C@@H]4CN(C)Cc5c(Cl)cc(Cl)cc54)c3)c2)C1 (stereo in doubt) [compound 75] | 1 | 6.90 | 6.30 | 81 | 55 | – | – | – | – | – | – | – | – | – | – |
| CN1Cc2c(Cl)cc(Cl)cc2[C@H](c2cccc(S(=O)(=O)NCCOCCOCCOCCNC(=O)CC(O)(CC(=O)NCCOCCOCCOCCNS(=O)(=O)c3cccc([C@@H]4CN(C)Cc5c(Cl)cc(Cl)cc54)c3)C(=O)NCCOCCOCCOCCNS(=O)(=O)c3cccc([C@@H]4CN(C)Cc5c(Cl)cc(Cl)cc54)c3)c2)C1 [compound 61] | 3 | 7.80 | 7.00 | 21 | 67 | 1 | 1 | 93 | 50 | 96 | 70 | – | – | – | – |
| CN1Cc2c(Cl)cc(Cl)cc2[C@H](c2cccc(S(=O)(=O)NCCOCCOCCOCCNC(=O)CCN(CCC(=O)NCCOCCOCCOCCNS(=O)(=O)c3cccc([C@@H]4CN(C)Cc5c(Cl)cc(Cl)cc54)c3)CCC(=O)NCCOCCOCCOCCNS(=O)(=O)c3cccc([C@@H]4CN(C)Cc5c(Cl)cc(Cl)cc54)c3)c2)C1 [compound 79] | 3 | 7.20 | – | 17 | 33 | 1 | 2 | 65 | 44 | 109 | 81 | 316 | – | – | – |
| CN(C)[C@H]1Cc2c(Cl)cc(Cl)cc2[C@@H]1Oc1ccc(S(=O)(=O)NCCOCCOCCNC(=O)NCCCCNC(=O)NCCOCCOCCNS(=O)(=O)c2ccc(O[C@H]3c4cc(Cl)cc(Cl)c4C[C@@H]3N(C)C)cc2)cc1 [compound 127] | 1 | 8.30 | 8.20 | 9 | 53 | 1 | 1 | 55 | 39 | 159 | 62 | – | – | – | – |
| CN(C)[C@H]1Cc2c(Cl)cc(Cl)cc2[C@@H]1Oc1ccc(S(=O)(=O)NCCOCCOCCNC(=O)CCC(C)(N)CCC(=O)NCCOCCOCCNS(=O)(=O)c2ccc(O[C@H]3c4cc(Cl)cc(Cl)c4C[C@@H]3N(C)C)cc2)cc1 [compound 174] | 1 | 8.53 | 8.60 | 49 | 61 | – | 1 | – | 37 | – | 55 | – | – | – | – |
| CN1Cc2c(Cl)cc(Cl)cc2[C@H](c2cccc(S(=O)(=O)NCCOCCOCCOCCNC(=O)CN3CCN(CC(=O)NCCOCCOCCOCCNS(=O)(=O)c4cccc([C@@H]5CN(C)Cc6c(Cl)cc(Cl)cc65)c4)CCN(CC(=O)NCCOCCOCCOCCNS(=O)(=O)c4cccc([C@@H]5CN(C)Cc6c(Cl)cc(Cl)cc65)c4)CCN(CC(=O)NCCOCCOCCOCCNS(=O)(=O)c4cccc([C@@H]5CN(C)Cc6c(Cl)cc(Cl)cc65)c4)CC3)c2)C1 [compound 58] | 1 | 7.30 | 6.30 | 82 | 68 | – | – | – | – | – | – | – | – | – | – |
| CCCCCCCCCCC(=O)NC(CCC(=O)NCCOCCOCCNS(=O)(=O)c1cccc([C@@H]2CN(C)Cc3c(Cl)cc(Cl)cc32)c1)(CCC(=O)NCCOCCOCCNS(=O)(=O)c1cccc([C@@H]2CN(C)Cc3c(Cl)cc(Cl)cc32)c1)CCC(=O)NCCOCCOCCNS(=O)(=O)c1cccc([C@@H]2CN(C)Cc3c(Cl)cc(Cl)cc32)c1 [compound 94] | 1 | 5.60 | <5.00 | 67 | 66 | – | – | – | – | – | – | – | – | – | – |
| CN1Cc2c(Cl)cc(Cl)cc2[C@H](c2cccc(S(=O)(=O)NCCOCCOCCNC(=O)NCCCC(CCCNC(=O)NCCOCCOCCNS(=O)(=O)c3cccc([C@@H]4CN(C)Cc5c(Cl)cc(Cl)cc54)c3)(CCCNC(=O)NCCOCCOCCNS(=O)(=O)c3cccc([C@@H]4CN(C)Cc5c(Cl)cc(Cl)cc54)c3)NC(=O)COCC(=O)O)c2)C1 [compound 161] | – | 7.60 | 9.20 | – | – | – | 2 | – | 82 | – | 60 | – | – | – | – |
| CN1Cc2c(Cl)cc(Cl)cc2[C@H](c2cccc(S(=O)(=O)N(C)CCOCCOCCNC(=O)CCN(CCC(=O)NCCOCCOCCN(C)S(=O)(=O)c3cccc([C@@H]4CN(C)Cc5c(Cl)cc(Cl)cc54)c3)CCC(=O)NCCOCCOCCN(C)S(=O)(=O)c3cccc([C@@H]4CN(C)Cc5c(Cl)cc(Cl)cc54)c3)c2)C1 [compound 134] | – | 6.50 | 6.50 | – | – | – | 1 | – | 64 | – | 72 | – | – | – | – |
| NCCOCCOCCN1CCN(c2cccc(-c3nc(N=C(N)N)nc4ccc(Cl)cc34)c2)CC1 [compound 16] | – | 7.80 | 6.70 | – | – | – | – | – | – | – | – | – | 1 | 87 | 123 |
| NCCOCCOCCOc1cccc(-c2nc(N=C(N)N)nc3ccc(Cl)cc23)c1 [compound 10] | 1 | 7.50 | 6.65 | 76 | 80 | – | – | – | – | – | – | – | – | – | – |
| CN1Cc2c(Cl)cc(Cl)cc2[C@H](c2cccc(S(=O)(=O)NCCOCCOCCNC(=O)CCC(CCC(=O)NCCOCCOCCNS(=O)(=O)c3cccc([C@@H]4CN(C)Cc5c(Cl)cc(Cl)cc54)c3)(CCC(=O)NCCOCCOCCNS(=O)(=O)c3cccc([C@@H]4CN(C)Cc5c(Cl)cc(Cl)cc54)c3)NC(=O)N(C)C[C@H](O)[C@@H](O)[C@H](O)[C@H](O)CO)c2)C1 [compound 142] | – | 7.10 | 8.10 | – | – | – | 2 | – | 45 | – | 38 | – | – | – | – |
